Assays:
[1] = test system: NSG PANC1 mice; assay: Survival in NSG PANC1 pancreatic cancer metastasis model, drug-infused chow; assay type: in vivo
Source text: FIG. 13 is a graph showing the survival rate of mice following metarrestin or vehicle treatment. This graph illustrates that metarrestin treatment extends survival in the NSG PANC1 pancreatic cancer metastasis model. […] The survival rate in the y-axis and the number of days after treatment is on the x-axis. Metarrestin treatment is the solid grey line at 100% survival and the descending black line is the vehicle (*** p<0.001).
FIG. 14 is a graph showing the survival rate of mice following metarrestin or vehicle treatment. This graph illustrates that metarrestin treatment extends survival in the NSG PANC1 pancreatic cancer metastasis model. Metarrestin treatment was provided through drug-infused chow (70 ppm designed to administer 10 mg/kg daily) after mice developed macrometastasis, including visible liver surface deposits. Metarrestin treatment extended the survival time of the mice compared to vehicle treated (NIH 31 Haslan diet). The survival rate in the y-axis and the number of days after treatment is on the x-axis. Metarrestin treatment is the solid grey line and the black line is the vehicle ([…]).
To evaluate whether metarrestin treatment can provide a survival advantage by preventing metastatic progression, the above experiment was repeated, but mice were followed until death or when animals reached study endpoint. NSG mice were injected with 60,000 3D PANC1 cells (details of assay below), and daily treatment with metarrestin-infused chow (10 mg/kg; 70 ppm, micronized particles added to NIH 31 Haslan rodent diet) began 6 weeks after tumor cell implantation, when metastasis was limited to micrometastasis by histopathological examination (FIG. 63). Animals in the control group receiving regular chow started to die 25 days after the start of treatment, whereas the metarrestin treatment group had no mortality more than 90 days after the start of treatment (FIG. 13). […]
Pancreatic cancer model: 60,000 luciferase-tagged PANC1 spheres were injected into the pancreas of Nod/IL2gamma (null) mice (obtained from NCI Mouse Repository, Frederick, Md.; on ACUC-approved animal protocol SB-211-2). […] Organs were then individually dissected, subjected to quantitative xenogene imaging, and fixed with 4% non-buffered formaldehyde. Impact of metastatic burden was calculated and graphed as liver and lung/primary tumor ratios based on a five-minute photon count for the liver normalized to liver weight (g), which was then compared to the average photon count per weight (g) of the primary pancreatic tumor of the same animal. […] Liver metastasis/mm^2 was calculated as the sum of the […] of the individual metastases. Tumor volume (mm^3) was calculated as (L×W2), where L=length (mm) and W=width (mm). Animal survival was measured from the first day of treatment until death. […]

[2] = test system: normal human fibroblast GM02153 cell line; assay: UBF distribution (nucleolar capping) in normal fibroblasts; assay type: cell-based
Experimental: The nucleolar disruption was reversible within 48 hours upon withdrawal of metarrestin (FIG. 47). Similar disruptions were observed among other treated cell lines, including PANC1 and PC3M cells (FIG. 48), primary tumor, and liver metastatic tissues in the PANC1 xenograft model (FIG. 21, right panels). […] The segregation of the nucleolar compartments observed by EM is believed to correspond to the nucleolar capping structures detected by immunofluorescence of nucleolar proteins (FIGS. 21A-21C, 23, and 50). The coupling of nucleolar segregation with PNC loss was confirmed across several cell lines by immunolabeling with antibodies against the nucleolar Pol I transcription initiation factors, UBF (upstream binding transcription factor) (FIGS. 23 and 50), or Pol I polymerase, RPA194 (FIG. 51). Factors involved in ribosome maturation, such as fibrillarin or NOPP140 (FIGS. 51 and 52) were similarly reorganized. In contrast, UBF distribution was not changed when the normal human fibroblast GM02153 cell line was treated with metarrestin at the same concentration (FIG. 53).

[3] = test system: RPA194 and UBF; assay: Western blot of RPA194 and UBF; assay type: cell-based; conditions: 1 μM, 24 hours, PANC1, PC3M, and HeLa
Experimental: Western blots were performed according to the manufacturer's protocols (Li-COR). Transfer membrane was from Millipore (cat. no. IPFL00010). The primary antibodies used were phospho-γ H2AX (Upstate 07-164, rabbit, 1:1000); p53 (Santa Cruz Biotechnology sc-6243 rabbit 1:500); UBF (F-9) (Santa Cruz Biotechnology, mouse, 1:500); RPA194 (Santa Cruz Biotechnology, sc-48385, mouse, 1:500); p53BP1 (Novus, NB100-304, rabbit 1:10,000); EF1a (Millipore 05-235, mouse, 1:1000), HA-Tag (C29F4, Cell Signaling, rabbit 1:1000) and actin (Sigma A5060, rabbit, 1:3000, A4700, mouse, 1:1000) as a loading control. LI-COR IRDye secondary antibodies (1:10,000), goat anti-mouse-680RD (926-68070), goat anti-mouse-800CW (926-32210), goat-anti-rabbit-680RD (926-68071), goat-anti-rabbit-800CW (926-32211) were used for visualization. Protein bands were detected using LI-COR Odyssey Image Studio (LI-COR Biosciences).
Psoralen crosslinks active accessible DNA under UV light without displacing nucleosomes or transcription factors, or changing chromatin states. Psoralen-crosslinked DNA moves slower on agarose gel and can be distinguished from the non-crosslinked DNA by Southern blots. […] To examine the interactions between Pol I transcription factors and rDNA, quantitative ChIP experiments were carried out using primer sets across promoter and coding regions of rDNA (FIG. 29-30E).

[4] = test system: eEF1A; assay: Cellular thermal shift assay (CETSA); assay type: binding; conditions: PC3M cell lysate
Source text: DMSO is the top panel and metarrestin is the bottom panel.

[5] = infused chow 10 mg/kg (70 ppm) after macrometastasis visible

## N=c1c2c(-c3ccccc3)c(-c3ccccc3)n(Cc3ccccc3)c2ncn1[C@H]1CC[C@H](O)CC1 [metarrestin]
[1]; [5]
  Extension of median overall survival over control group: more than two-fold
  Organ replacement with tumors at necropsy (liver, lungs): preserved organs
  Primary tumor growth in the pancreas: no significant difference
[1]; infused chow 10 mg/kg (70 ppm) from 6 weeks after implantation (micrometastasis)
  Time after start of treatment without mortality: more than 90 days
[2]; 1 μM
  UBF distribution: not changed
[2]; 5 μM
  UBF capping: did not become completely capped
[3]
  Amounts of Pol I large subunit RPA194 and UBF: did not change significantly
[4]
  Aggregation temperature of eEF1A: increase in the aggregation temperature of eEF1A
